Results on 85 compounds are retold here after PubChem BioAssay AID1645864 (Buhrlage Lab, Dana-Farber Cancer Institute and Novartis …, 2021).

pIC50: −log10 of the molar value. The source made the active and inactive calls.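 How the source made its calls: active means maximal inhibition of USP17 at or above 30% in the confirmation dose-response, a value not among the printed readouts; inactive means the rest.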

Sequence of Ubiquitin carboxyl-terminal hydrolase 17-like protein 5 (Homo sapiens) (A8MUK1 whole entry, looked up): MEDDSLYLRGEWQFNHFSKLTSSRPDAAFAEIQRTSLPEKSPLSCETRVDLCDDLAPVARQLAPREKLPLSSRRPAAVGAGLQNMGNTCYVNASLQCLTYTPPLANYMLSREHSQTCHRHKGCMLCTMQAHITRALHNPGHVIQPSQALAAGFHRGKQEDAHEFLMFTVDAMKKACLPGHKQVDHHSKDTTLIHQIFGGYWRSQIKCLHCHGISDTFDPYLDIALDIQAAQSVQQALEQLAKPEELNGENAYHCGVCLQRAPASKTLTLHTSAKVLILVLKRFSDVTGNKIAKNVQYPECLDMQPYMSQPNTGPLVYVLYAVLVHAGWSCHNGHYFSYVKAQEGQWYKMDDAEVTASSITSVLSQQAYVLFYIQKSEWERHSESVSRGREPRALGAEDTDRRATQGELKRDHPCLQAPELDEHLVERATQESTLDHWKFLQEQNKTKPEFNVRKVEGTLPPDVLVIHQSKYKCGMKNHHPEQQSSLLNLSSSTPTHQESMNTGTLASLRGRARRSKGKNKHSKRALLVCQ

This experiment concerns the target Ubiquitin carboxyl-terminal hydrolase 17-like protein 5 (Homo sapiens) (UniProt A8MUK1). Description: ubiquitin-specific protease 17 inhibitors, concentration series, biochemical, verification of primary actives (AID 1645864). Particulars: purified USP17, ubiquitin-rhodamine cleavage fluorescence, 3 h.
As a reminder, the IC50 is the point on the concentration scale where inhibition reaches its midpoint. Regarding `COc1cccc(/C=C/c2nc(C#N)c(N3CCN(C(=O)c4cccs4)CC3)o2)c1`, the IC50 was > 50 µM (inactive).

A word on the pIC50: it is the IC50 on a negative log10 scale, so that one unit is a factor of ten. As for `O=C(NCc1ccccc1Cl)c1ccc(-c2nnc(-c3ccccc3)o2)cc1`, the pIC50 was 5.60.

Consider `COc1ccc(CCNC(=O)c2cn(-c3ccc(F)cc3)nn2)cc1OC`, for which the pIC50 was 4.73.

As to `Cc1nn(-c2ccc(Cl)cc2)c2[nH]c(=O)c(CNCC3CCCO3)cc12` (stereo not given), the IC50 was > 50 µM (inactive).

`Fc1ccccc1N1CCN(c2ncc3c(n2)CCN(Cc2ccccn2)C3)CC1`: the pIC50 was 4.37.

Turning to `Cc1ccc([N+](=O)[O-])cc1S(=O)(=O)Nc1cc2sc(=O)oc2c2ccccc12`, the pIC50 was 5.46.

For the compound `Cc1nc(SCC#N)c2oc3ccccc3c2n1`, the pIC50 is 4.36.

On to `Cc1ccc(CNC(=O)CCCn2c(=O)c3sccc3n(CC(=O)Nc3cc(Cl)ccc3C)c2=O)cc1`, for which the pIC50 is 5.55.

Turning to `CS(=O)(=O)n1nc(NCc2ccc(F)cc2)nc1NCc1ccc(F)cc1`, the IC50 was > 50 µM (inactive).

For the compound `Cc1c(C(=O)NCc2cccc(Br)c2)oc2c1-c1[nH]ncc1CC2`, the pIC50 is 4.54.

Regarding `NC(=O)CCC(=O)N[C@H]1C[C@H]2CN(Cc3ccccc3)c3ccccc3CN2C1`, the IC50 is > 50 µM (inactive).

Consider `O=C(CNC(=O)c1cc2ccccc2o1)Nc1ccc2c(c1)OCCO2`, for which the pIC50 is 4.34.

In the case of `COc1ccc(OC)c(NC(=O)C2=C(C)Nc3ncnn3C2c2ccccc2OCc2ccc(C)cc2)c1` (stereo not given), the pIC50 is 4.91.

Turning to `Cc1cccc(CNC(=O)C2CCCN(S(=O)(=O)Cc3ccc(F)cc3)C2)c1` (stereo not given), the pIC50 is 4.72.

Regarding `COc1ccc(CC(=O)Nc2ccc3nc(N4CCOCC4)cc(C)c3c2)cc1`, the pIC50 is 4.62.

Consider `Cc1cc(C)c2nc3c(cc2c1)CN(Cc1ccco1)C(=O)O3`, for which the IC50 is > 50 µM (inactive).

Regarding `O=c1c(-c2nc(C3CC3)no2)cccn1Cc1c(F)cccc1Cl`, the IC50 is > 50 µM (inactive).

With `CCn1ccc2c(cc(C(=O)Nc3cccc(OC)c3)n2C)c1=O`, the IC50 was > 50 µM (inactive).

Consider `FC(F)(F)c1ccccc1CCN1CCc2nc3ccc(Cl)cc3cc2C1`, for which the IC50 was > 50 µM (inactive).

With `COc1cccc(NC(=O)c2ccc(F)cc2Cl)c1`, the IC50 is > 50 µM (inactive).

In the case of `O=C(Cc1cc(-c2ccccc2)on1)NCc1c(F)cccc1F`, the pIC50 was 4.55.

As for `CC1(C)OC2=C(C(=O)c3cc(O)cc(O)c3C2=O)c2cc(CO)c(O)cc21`, the pIC50 was 5.24.

Consider `COc1ccc(-n2c(=O)c(CCC(=O)O)nc3ccccc32)cc1`, for which the IC50 was > 50 µM (inactive).

As for `O=C(CNc1nc(Nc2ccccc2F)nc(Nc2ccccc2F)n1)Nc1ccccc1`, the pIC50 was 4.45.

In the case of `O=C(Cc1ccccc1F)N1CCC2(CC1)CC1(CO2)Nc2ccccc2-n2cccc21` (stereo not given), the IC50 is > 50 µM (inactive).

Regarding `Cc1nn(Cc2ccccc2)c(Cl)c1C(=O)NC1CCCc2ccccc21` (stereo not given), the IC50 is > 50 µM (inactive).

`N#Cc1ccc(Cc2ncc(C(F)(F)F)cc2Cl)s1`: the IC50 is > 50 µM (inactive).

For `CN(C)C1CCN(C(=O)c2cc(-c3ccn(-c4ccccc4)n3)n3ccccc23)CC1`, the IC50 was > 50 µM (inactive).

In the case of `CN(CCc1ccccc1)c1nccc(N2CCN(C(=O)c3csc(-c4cccnc4)n3)CC2)n1`, the IC50 was > 50 µM (inactive).

For the compound `CCOc1ccc(CC(=O)Nc2ccc(-c3cn4cccnc4n3)cc2)cc1`, the pIC50 is 4.50.

Take `CCc1nc2c(NC(=O)Nc3cccc(C(=O)OC)c3)cccn2n1`: the IC50 was > 50 µM (inactive).

As for `CCCNC(=O)c1ccn(-c2ccc3ccc(-c4cnn(C)c4)cn23)n1`, the IC50 is > 50 µM (inactive).

In the case of `CC(C)OC(=O)c1cc2c(ccn2C)n1CC(=O)N1CCN(C(=O)c2ccco2)CC1`, the IC50 was > 50 µM (inactive).

Turning to `Cc1ccc2c(=O)c3c([nH]c2c1C)CCN(CC(=O)NCc1ccccc1)C3`, the IC50 was > 50 µM (inactive).

For `CCC(=O)Nc1cccnc1-c1ccc(C(=O)Nc2cccc(OC)c2)cc1`, the IC50 was > 50 µM (inactive).

For the compound `COc1cccc(N2CCN(c3ccc4nnc(CCC(=O)N5CCc6ccccc6C5)n4n3)CC2)c1`, the pIC50 is 4.55.

For `Cc1ccc(-n2c(=O)c3ccccc3n(Cc3c(F)cccc3Cl)c2=O)cc1`, the pIC50 was 5.45.

Turning to `N#Cc1cccc(NC(=O)Nc2cccn(Cc3ccccc3F)c2=O)c1`, the pIC50 was 4.68.

On to `CC(=O)c1sc(NC(=O)/C=C/c2ccccc2)nc1-c1ccccc1`, for which the pIC50 is 4.86.

Consider `CC(OC(=O)CNC(=O)c1ccc(Br)cc1)C(=O)Nc1ccc2c(c1)OCCO2` (stereo not given), for which the pIC50 was 4.52.

With `CCCn1c(=O)n(CC(=O)c2ccccc2F)c2c(C(N)=O)nc(-c3ccco3)nc21`, the IC50 was > 50 µM (inactive).

On to `CC(=O)c1ccc(Cc2ncc(C(F)(F)F)cc2Cl)s1`, for which the IC50 was > 50 µM (inactive).

As for `Cc1ccccc1-c1nc(CN(C)S(=O)(=O)c2ccccc2)c(C)o1`, the IC50 is > 50 µM (inactive).

Turning to `Cc1cc(Cl)ccc1NC(=O)c1cc(-c2cccnc2)n[nH]1`, the IC50 is > 50 µM (inactive).

Consider `Cc1cccc(NC(=O)c2ccn(COc3ccc(F)cc3F)n2)c1C`, for which the IC50 was > 50 µM (inactive).

For `Cc1sc2nc(CN3CCCC3)nc(NCCc3ccc(Cl)cc3)c2c1C`, the IC50 was > 50 µM (inactive).

On to `CN1CCN(C(=O)c2ccn(-c3ccc4ccc(-c5cnn(C)c5)cn34)n2)CC1`, for which the IC50 is > 50 µM (inactive).

In the case of `Cc1cnc(CN2CCCC(c3ccc4cn[nH]c4n3)C2)cn1` (stereo not given), the IC50 is > 50 µM (inactive).

As for `CC(C)=CCC/C(C)=C/Cc1c(O)cc2c(c1O)C(=O)OC2`, the pIC50 is 5.77.

Regarding `O=c1c(Nc2cccc(F)c2)nc2ccncc2n1Cc1ccccc1`, the pIC50 was 4.90.

Consider `COc1cc(OC)c2c(c1)C(=O)C1=C(COC(C)(O)C1)C2=O` (stereo not given), for which the pIC50 was 5.46.

Take `O=C(Cn1c(=O)c2sccc2n(Cc2ccc([N+](=O)[O-])cc2)c1=O)NCCc1ccccc1`: the negative-log IC50 (pIC50) is 4.57.

Consider `O=C(CSc1nnc(-c2ccc3c(c2)OCO3)n1-c1ccccc1)OCC(=O)c1ccccc1`, for which the IC50 was > 50 µM (inactive).

For `CO[C@H]1[C@@H](O)[C@H](C)O[C@H](O[C@H]2[C@H](Oc3cccc4c(O)c5c(=O)oc6ccc(C)c7c(=O)oc(c34)c5c67)O[C@H](C)[C@H](O)[C@@H]2O)[C@@H]1O`, the IC50 was > 50 µM (inactive).

Consider `COc1ccc(NC(=O)C2[C@@H]3C(=O)N(C4CCCCC4)C(=O)[C@@H]3[C@H]3c4ccccc4C=CN23)cc1` (stereo not given in full), for which the pIC50 was 4.33.

As for `Cc1cc(C)nc(-n2nc(C)c3c2NC(=O)CSC3c2ccc(F)cc2F)n1` (stereo not given), the pIC50 was 4.43.

On to `CC1=CN2C(=N)/C(=C/c3cn(Cc4ccc(Cl)cc4)c4ccccc34)C(=O)N=C2S1`, for which the IC50 was > 50 µM (inactive).

`Cc1ccc(C(=O)Nc2cc3c4c(c2)CC(=O)N4CCC3)cc1C`: the IC50 is > 50 µM (inactive).

Turning to `COc1ccc(CCNC(=O)c2cc3ccccc3s2)cc1OC`, the IC50 was > 50 µM (inactive).

Consider `CCc1c(Cl)c(O)c(Cl)c(O)c1C(=O)O[C@H]1C(C)O[C@@H](OC/C2=C\C=C\CC(O)/C(C)=C/C(CC)C(O[C@@H]3OC(C)(C)[C@H](O)C(OC(=O)C(C)C)[C@@H]3O)/C(C)=C/C(C)=C/CC(C(C)O)OC2=O)[C@@H](OC)C1O` (stereo not given in full), for which the IC50 is > 50 µM (inactive).

Turning to `Cc1ccc(Cn2c(=O)n(CCC(=O)NCCc3ccccc3)c(=O)c3ccccc32)cc1`, the pIC50 is 4.93.

For `O=C(CNc1ccc(F)c(Cl)c1)Nc1ccc2c(c1)OCCO2`, the IC50 is > 50 µM (inactive).

As to `c1ccc(-c2nc(-c3nnn(-c4ccccc4)c3-c3ccncc3)no2)cc1`, the pIC50 is 5.41.

Consider `COc1ccc(NS(=O)(=O)c2ccc(NC(=O)Nc3ccc(Cl)cc3)cc2)cc1`, for which the pIC50 is 4.62.

With `CCOC(=O)c1sc2nc(CC(=O)OC)nc(NCc3ccco3)c2c1C`, the IC50 was > 50 µM (inactive).

As for `COc1ccc(-c2cc(C(F)F)n3ncc(C(=O)Nc4ccc5c(c4)OCCO5)c3n2)cc1`, the IC50 is > 50 µM (inactive).

In the case of `COCCCNC(=O)c1ccc(Cn2c(=O)c3ccccc3n(CC(=O)NC3CCCCC3)c2=O)cc1`, the pIC50 was 4.51.

For the compound `COc1ccccc1NC(=O)CSC1=NC2(CCCCC2)Nc2ccccc21`, the IC50 is > 50 µM (inactive).

For the compound `Cc1nnc(-c2nnc(NCc3ccc(Cl)cc3)c3ccccc23)o1`, the IC50 is > 50 µM (inactive).

In the case of `COc1ccc(-c2cc(-c3ccccc3)nc(SCC(N)=O)c2C#N)cc1OC`, the pIC50 was 5.79.

With `O=C(CSc1cn(Cc2ccccc2)c2ccccc12)Nc1ccc2c(c1)OCCO2`, the IC50 was > 50 µM (inactive).

Consider `O=C(CSc1ncnc2c1oc1ccccc12)Nc1ccc2c(c1)OCCO2`, for which the pIC50 was 4.54.

For `O=C(Cn1c(=O)n(CCC(=O)N2CC=C(c3ccccc3)CC2)c(=O)c2ccccc21)NCc1ccco1`, the pIC50 is 4.51.

Regarding `COc1ccc2nc(NC(=O)C(CC(C)C)NS(=O)(=O)c3ccc4c(c3)CCN4C(C)=O)sc2c1` (stereo not given), the pIC50 was 4.53.

As to `COC(=O)c1ccccc1NC(=O)CSc1nnc(CNc2ccc(F)cc2)n1CC1CCCO1` (stereo not given), the IC50 is > 50 µM (inactive).

With `CN1CC2CN(C(=O)c3ccc(F)cc3)CCN2Cc2ccccc21` (stereo not given), the IC50 was > 50 µM (inactive).

Consider `Cc1nc(N2CCCC2)ncc1-c1cc(=O)[nH]c(N2CCc3ccccc3C2)n1`, for which the pIC50 is 4.67.

Take `COc1ccc(-c2cc(-c3ccc(O)cc3)nc(N)c2C#N)cc1OC`: the IC50 is > 50 µM (inactive).

Take `CCOc1ccc2c(c1)c(=O)c(C(=O)c1ccc(C)cc1)cn2CC(=O)Nc1ccc(OC)c(OC)c1`: the negative logarithm of the IC50 (pIC50) was 6.33.

`O=S(=O)(Cc1nnc(-c2ccccc2C(F)(F)F)o1)c1ccc(Cl)cc1`: the IC50 is > 50 µM (inactive).

In the case of `COc1cc(C(=O)NC(Cc2ccccc2)c2nc3ccccc3[nH]2)cc(OC)c1OC` (stereo not given), the pIC50 was 5.58.

In the case of `Cc1ccc(CN2C(=O)c3cc4ccccc4n3CC2(C)C(=O)NCc2ccccc2)o1` (stereo not given), the pIC50 is 4.57.

On to `Cc1ccc(NC(=O)c2ccc3c(c2)N(S(C)(=O)=O)CC3)cc1`, for which the pIC50 was 4.42.

`CCN(C(=O)c1cc2c(Cl)nc3ccccc3c2s1)c1ccccc1F`: the pIC50 was 4.79.

For the compound `Cc1ccc(NC(=O)c2sc(=S)n(CCc3ccccc3)c2N)cc1`, the pIC50 is 5.62.
